According to patent US8129355B2, “Ketone ligands for modulating the expression of exogenous genes via an ecdysone receptor complex” (priority 2002, dated 2012):

Columns and labels:
[1] = target: T1, Gal4 DBD/AaEcR (DEF) with VP16-βRXR-E (Aedes aegypti, UniProt P49880); assay: cell-based; type: cell-based
T1 construct: The wildtype D, E, and F domains from mosquito Aedes aegypti EcR (“AaEcR-DEF”); expressed in transfected cells; host or cells: 3T3 cells, transient transfection (Superfect)
Description: 3T3 cells were trypsinized and plated at 2.5×10^3 cells/well on a 96-well plate. After incubation for 24 h at 37° C. under 5% CO2, cells were transfected with the Gal4 DBD/AaEcR (DEF) gene expression cassette and the reporter plasmid, pFRLuc, containing a 5XGAL4 response element and the firefly luciferase gene in serum free media using Superfect (Qiagen). After transfection for 4 h at 37° C., the cells were treated with ligand in serum media. […] Single dose testing was performed at 33 μM.

[2] = target: T2, GAL4 DBD (1-147)-CfEcR(DEF)/VP16AD-βRXREF-LmUSPEF (Choristoneura fumiferana, UniProt O77240); assay: 27-63 assay: luciferase reporter gene expression in stable CHO cell clone 27-63
T2 sequence (O77240 191-513): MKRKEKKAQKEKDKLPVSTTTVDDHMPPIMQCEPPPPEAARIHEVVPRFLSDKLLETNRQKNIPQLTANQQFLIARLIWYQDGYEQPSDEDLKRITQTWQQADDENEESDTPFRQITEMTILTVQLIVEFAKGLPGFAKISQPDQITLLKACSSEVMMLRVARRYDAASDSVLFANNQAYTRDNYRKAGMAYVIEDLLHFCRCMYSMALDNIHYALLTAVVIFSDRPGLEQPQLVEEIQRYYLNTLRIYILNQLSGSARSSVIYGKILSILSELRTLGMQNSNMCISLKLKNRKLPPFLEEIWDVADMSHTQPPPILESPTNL
T2 sequence (P28702 296-455 partner limits assumed): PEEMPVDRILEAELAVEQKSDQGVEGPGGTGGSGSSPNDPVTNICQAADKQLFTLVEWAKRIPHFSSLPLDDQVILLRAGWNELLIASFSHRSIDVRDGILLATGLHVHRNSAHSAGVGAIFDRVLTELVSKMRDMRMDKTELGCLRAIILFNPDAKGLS
Source text: GAL4 DBD (1-147)-CfEcR(DEF)/VP16AD-βRXREF-LmUSPEF: The wild-type D, E, and F domains from spruce budworm Choristoneura fumiferana EcR (“CfEcR-DEF”; SEQ ID NO: 1) were fused to a GAL4 DNA binding domain (“Gal4 DBD1-147”; nucleotides 31 to 471 of SEQ ID NO: 2) and placed under the control of a phosphoglycerate kinase promoter (“PGK”; SEQ ID NO: 3). Helices 1 through 8 of the EF domains from Homo sapiens RXRβ and helices 9 through 12 of the EF domains of Locusta migratoria Ultraspiracle Protein (“HsRXRβ-EF-LmUSP-EF”; SEQ ID NO: 4) were fused to the transactivation domain from VP16 (“VP16AD”; SEQ ID NO: 5) and placed under the control of an elongation factor-1α promoter (“EF-1α”; SEQ ID NO: 6). Five consensus GAL4 response element binding sites (“5XGAL4RE”; comprising 5 copies of a GAL4RE comprising SEQ ID NO: 7) were fused to a synthetic TATA minimal promoter (SEQ ID NO: 8) and placed upstream of the luciferase reporter gene (SEQ ID NO: 9).
CHO cells were transiently transfected with transcription cassettes for GAL4 DBD (1-147) CfEcR(DEF) and for VP16AD βRXREF-LmUSPEF controlled by ubiquitously active cellular promoters (PGK and EF-1α, respectively) on a single plasmid. Stably transfected cells were selected by Zeocin resistance. Individually isolated CHO cell clones were transiently transfected with a GAL4 RE-luciferase reporter (pFR Luc). 27-63 clone was selected using Hygromycin.
Cells were trypsinized and diluted to a concentration of 2.5×10^4 cells mL. 100 μL of cell suspension was placed in each well of a 96 well plate and incubated at 37° C. under 5% CO2 for 24 h. Ligand stock solutions were prepared in DMSO and diluted 300 fold for all treatments. Dose response testing consisted of 8 concentrations ranging from 33 μM to 0.01 μM.
Luciferase reporter gene expression was measured 48 h after cell treatment using Bright-Glo™ Luciferase Assay System from Promega (E2650). Luminescence was detected at room temperature using a Dynex MLX microtiter plate luminometer.
Fold inductions were calculated from single dose testing by dividing relative light units (RLU) in ligand treated cells by RLU in DMSO treated cells. BC50s were calculated from dose response data using a three-parameter logistic model.

[3] = maximum fold induction at any concentration relative to that of GS-E ligand

T1 sequence (P28704 286-520 A311G/G315S/G445S/I449V): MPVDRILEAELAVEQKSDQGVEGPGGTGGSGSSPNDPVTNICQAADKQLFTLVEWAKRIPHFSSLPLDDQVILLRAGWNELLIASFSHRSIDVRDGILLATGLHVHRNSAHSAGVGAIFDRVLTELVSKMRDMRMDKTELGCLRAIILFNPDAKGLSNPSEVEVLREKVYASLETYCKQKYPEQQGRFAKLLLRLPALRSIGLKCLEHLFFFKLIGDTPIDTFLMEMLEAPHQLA
T1 sequence (P49880 405-776): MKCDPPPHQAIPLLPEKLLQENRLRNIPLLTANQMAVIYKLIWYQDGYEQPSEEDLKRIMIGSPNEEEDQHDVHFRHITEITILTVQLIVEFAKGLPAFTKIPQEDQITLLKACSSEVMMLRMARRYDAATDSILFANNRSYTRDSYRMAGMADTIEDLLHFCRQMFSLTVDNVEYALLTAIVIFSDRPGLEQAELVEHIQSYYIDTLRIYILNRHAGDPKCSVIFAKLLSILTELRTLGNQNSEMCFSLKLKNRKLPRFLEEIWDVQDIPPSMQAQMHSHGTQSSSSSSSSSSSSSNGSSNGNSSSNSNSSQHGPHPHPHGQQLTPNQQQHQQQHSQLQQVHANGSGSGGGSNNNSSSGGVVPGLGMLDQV

## CCc1ccc(C(=O)NC2(C(=O)c3cc(C)cc(C)c3)CCCC2)cc1 [Example 138]
[1]; average, dose response 33 μM to 0.01 μM, three-parameter logistic model, read-out: AA_3T3 LC50
  LC50 (half-maximal ligand concentration for reporter induction): ~4.7 µM
[1]; [3]
  AA_3T3 Rel Max FI: 0.22
[1]; single dose 33 μM, RLU ligand treated / RLU DMSO treated cells
  Fold Induction Average, AA_3T3 Assay (33 μM): 2134
[2]; [3]
  27-63 Rel Max FI: 0.75
[2]; read-out: 27-63 LC50, average, dose response, three-parameter logistic model
  CC50: 3.59 µM
